The first assay in a line: LCMS analysis of drug release by tetrazines (TCO-MMAE Compound B). As to conditions: tetrazine 20 μM, Compound B 10 μM, PBS. As to the method: A solution of each tetrazine (20 μM final concentration) in PBS is mixed with TCO-MMAE Compound B (10 μM final concentration). The solution is mixed thoroughly and an aliquot removed at the appropriate time for analysis by LCMS.
As for `Cc1nnc(-c2ncccn2)nn1`, the “% Compound B consumed (1 h)” value was 100%.

In the case of `Cc1nnc(-c2cn(C)cn2)nn1`, the “% Compound B consumed (1 h)” value was 74%.

For `Cc1nnc(-c2cocn2)nn1`, the “% Compound B consumed (1 h)” value was found to be 42%.

With `Cc1nnc(-c2ccc(C(F)(F)F)c(CN)c2)nn1`, the “% Compound B consumed (1 h)” value is given as 100%.

Consider `Cc1nnc(-c2ccc(CN)c(C(F)(F)F)c2)nn1`, for which the “% Compound B consumed (1 h)” value amounted to 100%.

As to `Cc1nnc(-c2ccccn2)nn1`, the “% Compound B consumed (1 h)” value was 100%.

Regarding `Cc1nnc(-n2cccn2)nn1`, the “% Compound B consumed (1 h)” value worked out at 81%.

A further assay can be described thus: LC-MS quantification of conversion of protodrug in presence of Compound 111 in rat plasma-EDTA. As to conditions: FIG. 2, 37° C., Compound 111 100 μg/mL, protodrug 250 ng/mL. As to the method: Liquid chromatography-mass spectrometry (LC-MS) was used to quantify the conversion of Compound B protodrug to MMAE and Compound F to exatecan in the presence of Compound 111. Compound 111 (100 μg/mL) was added to rat plasma-EDTA and incubated at 37° C. The protodrugs, Compound B and Compound F, were added to the plasma with the final concentration of 250 ng/mL. At each time point, triplicate aliquots were transferred to a plate with various pH extraction conditions and precipitated with acetonitrile for Compound B/MMAE or methanol for Compound F/exatecan. LC-MS/MS analyzed the extracted samples with the instrument methods previously established for each analyte. The conversion percentage was calculated based on the initial concentration of protodrugs and the formation of exatecan and MMAE in mole/mL.
For the compound `CC[C@H](C)[C@@H]([C@@H](CC(=O)N1CCC[C@H]1[C@H](OC)[C@@H](C)C(=O)N[C@H](C)[C@@H](O)c1ccccc1)OC)N(C)C(=O)[C@@H](NC(=O)[C@H](C(C)C)N(C)C(=O)O[C@H]1/C=C/CC[C@@](C)(C(=O)N[C@@H](CC(=O)O)C(=O)O)CC1)C(C)C` [Compound B], the “conversion to MMAE after reaction with Compound 111” value is reported as “rapidly converted”.

Regarding `CC[C@@]1(O)C(=O)OCc2c1cc1n(c2=O)Cc2c-1nc1cc(F)c(C)c3c1c2[C@@H](NC(=O)O[C@H]1/C=C/CC[C@@](C)(C(=O)NCCOCCOCCOCCN(CCOCCOCCOCCC(=O)O)CCOCCOCCOCCC(=O)O)CC1)CC3` [Compound F], the “conversion to exatecan after reaction with Compound 111” value is given as “rapidly converted”.

For the origin of these results see patent US20260335446A1, “TETRAZINE-BASED TARGETING AGENTS FOR IN VIVO DELIVERY OF A PAYLOAD” (Tambo, Inc., priority 2023, published 2026).
